Results from US7666848B2, “Thiophene glycoside derivatives, processes for the preparation, medicaments comprising these compounds, and the use thereof” (Sanofi-Aventis Deutschland GmbH, priority 2002, dated 2010).

Tested on: rabbit renal cortex brush border membrane vesicles
Experiment: Uptake of [14C]-labeled glucose into brush border membrane vesicles (transport assay, membrane filtration method)
Type: biochemical
Details: transport assay on rabbit renal cortex brush border membrane vesicles; 10 μM [14C]D glucose, 30° C., 15 seconds; β-D-gluco form

SMILES	IC25
COc1ccc(Cc2sccc2OC2OC(CO)C(O)C(O)C2O)cc1 (centres unmarked) [Example 7, 2-Hydroxymethl-6-[2-(4-methoxy-benzyl)-thiophen-3-yloxy]-tetrahydro-pyran-3,4,5-triol]	1.1 µM
COc1ccc(Cc2sc(C(F)(F)F)cc2OC2OC(CO)C(O)C(O)C2O)cc1 (centres unmarked) [Example 54]	1.4 µM
